The structures appear in SMILES notation. Where two headings read alike, the source gives them in different places.

Our source for the Kd, JHRE-luc reporter activity and Ki values is article PMC4498814, “Genetic Evidence for Function of the bHLH-PAS Protein Gce/Met As a Juvenile Hormone Receptor” (PLoS Genetics, 2015).

The target of assay [1] is T1, Gce (germ cell-expressed) (Drosophila melanogaster, UniProt Q9VXW7).
T1 construct: amino acids 1–689, translated in vitro
T1 sequence (Q9VXW7 269-959): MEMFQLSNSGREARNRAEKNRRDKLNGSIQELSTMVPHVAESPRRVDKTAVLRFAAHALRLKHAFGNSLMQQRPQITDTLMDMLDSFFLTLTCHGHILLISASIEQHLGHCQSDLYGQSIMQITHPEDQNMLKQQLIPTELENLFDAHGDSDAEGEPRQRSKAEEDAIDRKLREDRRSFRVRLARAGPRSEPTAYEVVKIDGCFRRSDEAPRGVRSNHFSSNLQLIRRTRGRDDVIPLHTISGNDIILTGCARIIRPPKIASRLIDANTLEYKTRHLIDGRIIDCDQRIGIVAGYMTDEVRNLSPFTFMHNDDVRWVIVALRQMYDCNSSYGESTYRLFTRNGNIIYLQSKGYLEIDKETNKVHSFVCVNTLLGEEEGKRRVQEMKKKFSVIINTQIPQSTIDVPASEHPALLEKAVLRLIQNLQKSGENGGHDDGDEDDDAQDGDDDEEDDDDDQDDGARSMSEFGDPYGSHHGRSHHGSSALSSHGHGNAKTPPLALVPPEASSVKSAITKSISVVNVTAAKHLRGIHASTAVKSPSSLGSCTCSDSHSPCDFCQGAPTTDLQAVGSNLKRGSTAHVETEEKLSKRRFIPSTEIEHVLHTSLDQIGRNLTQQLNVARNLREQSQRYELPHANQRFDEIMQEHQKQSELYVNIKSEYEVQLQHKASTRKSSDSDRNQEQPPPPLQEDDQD
In words: [3H]JH III radioligand saturation binding, dextran-coated charcoal assay.

The target in assay [2] is T2, Met (Methoprene-tolerant) (Drosophila melanogaster, UniProt Q9VYW2).
T2 construct: amino acids 1–716, FLAG-tagged, expressed in S2 cells
T2 sequence (Q9VYW2 1-716): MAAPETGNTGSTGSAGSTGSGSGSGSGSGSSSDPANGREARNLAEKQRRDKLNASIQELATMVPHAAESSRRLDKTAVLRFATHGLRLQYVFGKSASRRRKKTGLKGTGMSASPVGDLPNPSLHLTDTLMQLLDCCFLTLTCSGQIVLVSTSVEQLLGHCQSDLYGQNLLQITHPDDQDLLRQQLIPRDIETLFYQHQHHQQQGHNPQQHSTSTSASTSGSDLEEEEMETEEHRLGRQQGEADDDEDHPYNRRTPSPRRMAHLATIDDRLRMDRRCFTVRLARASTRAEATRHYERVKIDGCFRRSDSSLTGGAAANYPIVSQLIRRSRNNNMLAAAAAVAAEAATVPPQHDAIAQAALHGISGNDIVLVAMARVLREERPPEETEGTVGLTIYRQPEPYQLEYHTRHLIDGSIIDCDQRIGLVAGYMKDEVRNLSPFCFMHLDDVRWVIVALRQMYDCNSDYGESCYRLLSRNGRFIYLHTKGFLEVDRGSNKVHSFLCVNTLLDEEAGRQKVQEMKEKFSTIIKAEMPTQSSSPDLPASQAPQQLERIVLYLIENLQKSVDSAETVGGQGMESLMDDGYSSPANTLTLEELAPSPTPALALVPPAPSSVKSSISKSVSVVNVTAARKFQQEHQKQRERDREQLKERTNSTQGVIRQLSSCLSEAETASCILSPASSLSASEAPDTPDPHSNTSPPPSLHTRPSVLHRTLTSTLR
In words: JHRE-luc reporter in S2 cells with endogenous Met and Gce depleted; pocket mutants inactive. Format: cell-based.

Assay [3] addresses T1, Gce (germ cell-expressed). In words: competition radioligand binding against [3H]JH III, dextran-coated charcoal assay.

For the compound `COC(=O)/C=C(\C)CC/C=C(\C)CCC1OC1(C)C` (racemic) [JH III], the Kd (as a rule, the constant that tells how readily two partners part at equilibrium) in assay [1] was 19.3 ± 4.5 nM. The JHRE-luc reporter activity result in assay [2] is recorded as “Like Gce, Met but not its mutated versions, mediated induction of JHRE-luc by JH III (Fig 3C)”.
Consider `COC(C)(C)CCC[C@H](C)C/C=C/C(C)=C/C(=O)OC(C)C` (racemic) [methoprene], for which the Ki – broadly, the equilibrium dissociation constant of an inhibitor or competing ligand from its target – in assay [3] came to 45.8 ± 28.9 nM.
In the case of `CC(C)=CCC/C(C)=C/CC/C(C)=C/CO` [farnesol], the Ki in assay [3] (read-out: Ki) stood at 8100 ± 2400 nM.
Consider `COC(=O)/C=C(\C)CC/C=C(\C)CCC=C(C)C` [methyl farnesoate], for which the Ki in assay [3] (read-out: Ki) came out at 87.9 ± 22.2 nM.
As for `CC(COc1ccc(Oc2ccccc2)cc1)Oc1ccccn1` (stereo not drawn) [pyriproxyfen], the affinity in assay [3] corresponds to a Ki of 5.7 ± 2.8 nM.
